# Assay: In vitro dissolution in simulated lung fluid
# Assay type: physicochemical
# Details: simulated lung fluid with 0.01% w/v DPPC, ca. 2 mg CsA in 100 mL, 100 r/min, 37 °C, HPLC; n = 3
# Protocol: In vitro dissolution was carried out in simulated lung fluid. Simulated lung fluid was prepared with some modifications according to the literature. The composition of simulated lung fluid included NaCl (6.40 g/L), CaCl2·2H2O (0.26 g/L), Na2HPO4 (0.15 g/L), NaHCO3 (2.70 g/L), NH4Cl (0.12 g/L), MgCl2 (0.10 g/L), Na2SO4·10H2O (0.18 g/L), Na3citrate·2H2O (0.16 g/L), Glycine (0.19 g/L), and dipalmitoylphosphatidylcholine (0.01% w/v). Raw CsA and formulation (ca. 2 mg CsA) were dispersed in 100 mL dissolution medium and placed in a magnetic stirrer (MR Hei-Tec, Heidolph, Germany) maintained at 100 r/min and 37 °C. At predetermined intervals, suspensions (0.5 mL) were withdrawn and centrifuged. The supernatants were diluted with 0.5 mL of ethanol and determined by the HPLC method, as described in Section 2.3.
substance,measurement,value
Cyclosporine A [raw CsA],Release amount within 24 h,≤ 24%

# Reference: article PMC10537410 (Pharmaceutics, 2023)
